From article PMC8707700, “Ru(III) Complexes with Lonidamine-Modified Ligands” (International Journal of Molecular Sciences, 2021)
Like-named read-outs stand apart in the source and are kept apart here.

What was measured:
[1] = Stability of Ru(III) complexes in phosphate buffer by UV-vis spectrophotometry; type: physicochemical; details: 20 mM phosphate buffer pH 7.4, 100 mM NaCl, 37 °C
Method: The stability of Ru(III) complexes (15–20) was investigated in a solution resembling physiological conditions (20 mM of phosphate buffer, pH 7.4, and 100 mM of NaCl at 37 °C) by UV-vis spectrophotometry (Table 1). The half-transformation time t1/2 was calculated based on changes in the electronic absorption spectrum (Figure S1) and defined as the value of t at the Alin/2 point. ΔA(t) was plotted against λmax; the initial section was approximated as a linear function.
The stability of Ru(III) complexes was studied by electron absorption spectroscopy in 20 mM of phosphate buffer, pH 7.4, and 100 mM of NaCl. The working solution (2 mL, 200 μM complex) was prepared by diluting 10 μL of the original 40 mM solution in DMSO and 1.99 mL of phosphate buffer. UV-vis spectra were recorded every 60 s in the range of 280–600 nm at 37 °C. The half-transformation time was t1/2. For λmax, ΔA(t) was plotted, where ΔA = A0–Ai, an initial section, was approximated as a linear function. At ΔAline./2 point calculated as t = t1/2.

[2] = test system: MCF-7 breast carcinoma cells; assay: Cellular ruthenium accumulation by atomic absorption spectrometry; type: cell-based; details: MCF-7, 20 μM
Method: The cellular accumulation of ruthenium complexes was studied by atomic absorption spectrometry. The MCF-7 breast carcinoma cells were incubated with 16 and 20 for 1–24 h in DMEM with or without fetal bovine serum to reduce the binding of complexes with proteins. The accumulation was dependent on the linker’s length. […] The ruthenium complex entered the cells relatively fast; by 4 h, no notable further increase of the Ru content was observed (Figure 6). […] The negative effect of serum on the cellular Ru accumulation has been reported for other ruthenium species; however, significant effects were detectable only after longer exposure (24 h).
The intracellular accumulation of metal-containing compounds was determined as described. […]
For metal and protein quantification, pellets were resuspended in 250 µL of deionised water and lysed for 30 min with sonication. The protein content in lysates was determined by the Bradford method. […] Drying steps were adjusted, the atomisation temperature was set to 2400 °C, and the reading time was increased to 7 s. Ruthenium was quantified at 349.8945 nm. The mean integrated absorbance of triple injections was used throughout the measurements. Results (average of the two experiments) were expressed as nmol metal/mg protein.

[3] = biological target: T1, TrxR1 in rat liver extracts (Rattus norvegicus, UniProt O89049); assay: Inhibition of TrxR1 in rat liver extracts; type: biochemical; details: for mechanism of inhibition: efficacy independent of DTNB concentration; for Ki: estimated according to the Cheng–Prusoff equation, read-out: Ki (inhibition constant); for IC50: rat liver extracts, read-out: TrxR1 IC50, µM (95% C.I.)
T1 construct: measured in the extracts from the liver of male white outbred rats; from tissue; host or cells: liver of male white outbred rats (homogenate supernatant)
T1 sequence (O89049 1-499): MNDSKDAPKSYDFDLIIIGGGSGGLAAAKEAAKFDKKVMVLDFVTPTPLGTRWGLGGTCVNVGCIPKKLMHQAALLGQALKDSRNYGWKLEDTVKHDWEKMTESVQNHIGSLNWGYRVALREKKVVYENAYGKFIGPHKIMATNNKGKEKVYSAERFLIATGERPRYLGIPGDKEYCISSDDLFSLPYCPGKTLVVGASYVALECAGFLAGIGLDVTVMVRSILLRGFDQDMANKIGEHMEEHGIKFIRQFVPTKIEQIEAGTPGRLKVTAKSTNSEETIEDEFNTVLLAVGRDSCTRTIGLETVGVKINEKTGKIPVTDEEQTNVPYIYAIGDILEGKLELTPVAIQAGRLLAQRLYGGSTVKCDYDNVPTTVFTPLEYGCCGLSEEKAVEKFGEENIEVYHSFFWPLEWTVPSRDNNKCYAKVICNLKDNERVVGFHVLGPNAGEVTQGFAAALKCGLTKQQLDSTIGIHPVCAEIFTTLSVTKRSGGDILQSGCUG
Method: The TrxR1 enzyme was measured in the extracts from the liver of male white outbred rats homogenised in 50 mM of PBS containing 1 mM of EDTA and centrifuged for 15 min at 10,000 rpm at 4 °C. The supernatant was adjusted to 7.5 µg/mL of protein as determined with pyrogallol red. Then, 40 μL of the enzyme solution was mixed with 10 μL of the test compounds in a 96-well clear flat bottom plate. After 10 min at 25 °C, 30 μL of PBS containing 0.7 mg/mL of BSA and 0.8 mM of NADPH was added. After 15 min at 25 °C, 20 µL of DTNB solution was added to the desired final concentrations. Kinetic studies were carried out by assaying TrxR1 at various concentrations of DTNB. The optical density of the samples was measured with an Infinite M200 Pro reader (Tecan, Grödig, Austria) at 412 nm every 30 s for 20 min. The activity of TrxR1 was calculated as a reaction slope relative to the control wells using Prism 8.0 (GraphPad, Inc., San Diego, CA, USA).

Substance	t1/2 (half-transformation time) ([1]; mean ± SD, three experiments) [s]	cellular Ru accumulation with serum in the culture medium ([2]; serum present)	mechanism of inhibition [3]	Ki [3] [µM]	IC50 ([3]; DTNB 0.06 mM) [µM]	IC50 ([3]; DTNB 0.1 mM) [µM]	IC50 ([3]; DTNB 2.5 mM) [µM]	t1/2 (half-transformation time) [1]	cellular Ru accumulation ([2]; 1–24 h)
Na[trans-Ru(DMSO)(C21H19Cl2N5O)Cl4] [Compound 16]	330 ± 20	only very low uptake	non-competitive	30.7	24	33	33	–	–
Na[trans-Ru(DMSO)(C30H37Cl2N5O)Cl4] [Compound 20]	2150 ± 110	–	non-competitive	15.3	17	15	15	~ 35 min	accumulated more readily than 16
